In the assay the test system is B6C3F1 mice, colon carcinoma 38 s.c., T/C. Put plainly: NCI In Vivo Anticancer Drug Screen. Data for tumor model Colon Carcinoma 38 (subcutaneous) in B6C3F1 mice. The note with it: higher = larger tumour. As to the method: The antitumor activity of compounds was measured in mice bearing transplantable tumors. Survival or tumor size were measured and the results are expressed as the measurement made in the treated group (T) divided by the measurement made in the vehicle treated control group (C). The tumor model used in this assay is Colon Carcinoma 38 (subcutaneous) in B6C3F1 mice

[1] abbreviates: endpoint: median tumor weight (est.), dose: 100.0 mg/kg/injection, schedule: Q07DX002 (ip), vehicle: suspension in saline.
The mark [2] stands for this setting: endpoint: median tumor weight (est.), dose: 100.0 mg/kg/injection, schedule: Q07DX002 (ip), vehicle: saline.
[3] abbreviates: endpoint: median tumor weight (est.), dose: 200.0 mg/kg/injection, schedule: Q07DX002 (ip), vehicle: saline.
[4] abbreviates: endpoint: median tumor weight (est.), dose: 50.0 mg/kg/injection, schedule: Q07DX002 (ip), vehicle: suspension in saline.
The mark [5] stands for this setting: endpoint: median tumor weight (est.), dose: 100.0 mg/kg/injection, schedule: Q07DX002 (ip), vehicle: Klucel (hydroxypropylcellulose) (HPC).
Setting [6] is: endpoint: median tumor weight (est.), dose: 50.0 mg/kg/injection, schedule: Q07DX002 (ip), vehicle: saline.

This passage reports T/C results from PubChem BioAssay AID214 (DTP/NCI, 2004).

Values joined by “and” are separate entries in the source; they are usually repeats but may differ in a detail not shown here. Identical values can stand only once. Results filed as inconclusive are left out.

For `O=C(O)Cc1cccc2c(=O)cc(-c3ccccc3)oc12`, the T/C is 67 % of control (endpoint: median tumor weight (est.), dose: 33.0 mg/kg/injection, schedule: Q07DX002 (ip), vehicle: suspension in saline); 109 % of control (endpoint: median tumor weight (est.), dose: 63.0 mg/kg/injection, schedule: Q07DX002 (ip), vehicle: clinical formulation); 100 % of control (endpoint: median tumor weight (est.), dose: 63.0 mg/kg/injection, schedule: Q07DX002 (ip), vehicle: sodium bicarbonate); 114 % of control (endpoint: median tumor weight (est.), dose: 63.0 mg/kg/injection, schedule: Q07DX002 (iv), vehicle: clinical formulation); 90 % of control (endpoint: median tumor weight (est.), dose: 63.0 mg/kg/injection, schedule: Q07DX002 (iv), vehicle: sodium bicarbonate); 89 % of control (endpoint: median tumor weight (est.), dose: 66.0 mg/kg/injection, schedule: Q07DX002 (ip), vehicle: suspension in saline). Besides, the T/C was 91 % of control (endpoint: median tumor weight (est.), dose: 84.0 mg/kg/injection, schedule: Q07DX002 (ip), vehicle: clinical formulation); 155 % of control (endpoint: median tumor weight (est.), dose: 84.0 mg/kg/injection, schedule: Q07DX002 (ip), vehicle: sodium bicarbonate); 67 % of control (endpoint: median tumor weight (est.), dose: 84.0 mg/kg/injection, schedule: Q07DX002 (iv), vehicle: clinical formulation); 82 % of control (endpoint: median tumor weight (est.), dose: 84.0 mg/kg/injection, schedule: Q07DX002 (iv), vehicle: sodium bicarbonate); 90 % of control under setting [1]; 95 % of control (endpoint: median tumor weight (est.), dose: 112.0 mg/kg/injection, schedule: Q07DX002 (ip), vehicle: clinical formulation). The T/C (endpoint: median tumor weight (est.), dose: 112.0 mg/kg/injection, schedule: Q07DX002 (iv), vehicle: clinical formulation) was 74 % of control; the T/C (endpoint: median tumor weight (est.), dose: 112.0 mg/kg/injection, schedule: Q07DX002 (iv), vehicle: sodium bicarbonate) was 84 % of control and 102 % of control; the T/C (endpoint: median tumor weight (est.), dose: 128.0 mg/kg/injection, schedule: Q07DX002 (ip), vehicle: water) was 79 % of control; the T/C (endpoint: median tumor weight (est.), dose: 150.0 mg/kg/injection, schedule: Q07DX002 (ip), vehicle: clinical formulation) is 14 % of control; the T/C (endpoint: median tumor weight (est.), dose: 150.0 mg/kg/injection, schedule: Q07DX002 (ip), vehicle: sodium bicarbonate) is 101 % of control; the T/C (endpoint: median tumor weight (est.), dose: 150.0 mg/kg/injection, schedule: Q07DX002 (ip), vehicle: suspension in saline) was 10 % of control. Besides, the T/C runs as follows: (endpoint: median tumor weight (est.), dose: 150.0 mg/kg/injection, schedule: Q07DX002 (iv), vehicle: clinical formulation) 47 % of control; (endpoint: median tumor weight (est.), dose: 150.0 mg/kg/injection, schedule: Q07DX002 (iv), vehicle: sodium bicarbonate) 57 % of control; (endpoint: median tumor weight (est.), dose: 160.0 mg/kg/injection, schedule: Q07DX002 (ip), vehicle: water) 81 % of control; (endpoint: median tumor weight (est.), dose: 200.0 mg/kg/injection, schedule: Q07DX002 (ip), vehicle: sodium bicarbonate) 79 % of control and 87 % of control; (endpoint: median tumor weight (est.), dose: 200.0 mg/kg/injection, schedule: Q07DX002 (ip), vehicle: water) 25 % of control; (endpoint: median tumor weight (est.), dose: 250.0 mg/kg/injection, schedule: Q07DX002 (ip), vehicle: water) 13 % of control. The T/C reads like this: (endpoint: median tumor weight (est.), dose: 267.0 mg/kg/injection, schedule: Q07DX002 (iv), vehicle: sodium bicarbonate) 77 % of control; (endpoint: median tumor weight (est.), dose: 356.0 mg/kg/injection, schedule: Q07DX002 (iv), vehicle: sodium bicarbonate) 77 % of control; (endpoint: optimum tumor weight change, dose: 128.0 mg/kg/injection, schedule: Q07DX002 (ip), vehicle: water) 78 % of control; (endpoint: optimum tumor weight change, dose: 160.0 mg/kg/injection, schedule: Q07DX002 (ip), vehicle: water) 50 % of control; (endpoint: optimum tumor weight change, dose: 200.0 mg/kg/injection, schedule: Q07DX002 (ip), vehicle: water) 72 % of control; (endpoint: optimum tumor weight change, dose: 250.0 mg/kg/injection, schedule: Q07DX002 (ip), vehicle: water) 20 % of control.

Regarding `O=C(O)Cc1cccc2c(=O)cc(Cc3ccccc3)oc12`, the T/C is 60 % of control under setting [2]; 111 % of control under setting [3]; 122 % of control (endpoint: median tumor weight (est.), dose: 400.0 mg/kg/injection, schedule: Q07DX002 (ip), vehicle: saline).

`C[n+]1c(-c2cccc(OCCOCCOc3cccc(-c4c5cc(N)ccc5c5ccc(N)cc5[n+]4C)c3)c2)c2cc(N)ccc2c2ccc(N)cc21`: the T/C reads like this: (endpoint: median tumor weight (est.), dose: 4.0 mg/kg/injection, schedule: Q07DX002 (ip), vehicle: water) 71 % of control; (endpoint: median tumor weight (est.), dose: 8.0 mg/kg/injection, schedule: Q07DX002 (ip), vehicle: water) 54 % of control; (endpoint: median tumor weight (est.), dose: 16.0 mg/kg/injection, schedule: Q07DX002 (ip), vehicle: water) 85 % of control and 66 % of control; (endpoint: median tumor weight (est.), dose: 64.0 mg/kg/injection, schedule: Q07DX002 (ip), vehicle: water) 33 % of control and 52 % of control.

In the case of `Cc1cc(NS(=O)(=O)c2ccc(N=Nc3cc(N=Nc4ccc(S(=O)(=O)Nc5cc(C)nc(C)n5)cc4)c4c(NC(=O)C(Cl)Cl)cccc4c3OC(=O)C(Cl)Cl)cc2)nc(C)n1` (tested in a mixture with another compound), the T/C reads like this: (endpoint: median tumor weight (est.), dose: 25.0 mg/kg/injection, schedule: Q07DX002 (ip), vehicle: suspension in saline) 111 % of control; (endpoint: median tumor weight (est.), dose: 400.0 mg/kg/injection, schedule: Q07DX002 (ip), vehicle: suspension in saline) 114 % of control.

Turning to `CCN(CC)CCOCCO`, the T/C is 150 % of control under setting [4] and 160 % of control under setting [1].

For the compound `CCN(CC)CCNc1ccc(C)c2sc3ccccc3c(=O)c12`, the T/C under setting [4] is 66 % of control; the T/C under setting [1] is 42 % of control; the T/C (endpoint: median tumor weight (est.), dose: 200.0 mg/kg/injection, schedule: Q07DX002 (ip), vehicle: suspension in saline) was 2 % of control.

With `O=C(O)c1cc(Cc2ccc(O)c(C(=O)O)c2)ccc1O` (tested in a mixture with another compound), the T/C (endpoint: median tumor weight (est.), dose: 25.0 mg/kg/injection, schedule: Q07DX002 (ip), vehicle: Klucel (hydroxypropylcellulose) (HPC)) is 71 % of control; the T/C (endpoint: median tumor weight (est.), dose: 50.0 mg/kg/injection, schedule: Q07DX002 (ip), vehicle: Klucel (hydroxypropylcellulose) (HPC)) is 78 % of control; the T/C under setting [5] is 70 % of control; the T/C (endpoint: median tumor weight (est.), dose: 200.0 mg/kg/injection, schedule: Q07DX002 (ip), vehicle: Klucel (hydroxypropylcellulose) (HPC)) is 115 % of control; the T/C (endpoint: median tumor weight (est.), dose: 400.0 mg/kg/injection, schedule: Q07DX002 (ip), vehicle: Klucel (hydroxypropylcellulose) (HPC)) is 63 % of control.

As to `O=C(COc1cccc2c(=O)cc(-c3ccccc3)oc12)OCCN1CCOCC1`, the T/C runs as follows: under setting [2], 81 % of control; under setting [3], 43 % of control.

For the compound `O=C(O)Cc1cccc2c(=O)c(-c3ccccc3)c(-c3ccccc3)oc12`, under setting [5], the T/C was 11 % of control.

Take `Cc1ccoc1`: the T/C reads like this: (endpoint: median tumor weight (est.), dose: 16.8 mg/kg/injection, schedule: Q03HX006 (ip), vehicle: saline with Tween-80) 75 % of control; (endpoint: median tumor weight (est.), dose: 33.33 mg/kg/injection, schedule: Q03HX006 (ip), vehicle: saline with Tween-80) 109 % of control; (endpoint: median tumor weight (est.), dose: 66.66 mg/kg/injection, schedule: Q03HX006 (ip), vehicle: saline with Tween-80) 114 % of control; (endpoint: median tumor weight (est.), dose: 133.33 mg/kg/injection, schedule: Q03HX006 (ip), vehicle: saline with Tween-80) 108 % of control.

Regarding `Nc1n[nH]c2ccccc12`, the T/C by setting is: (endpoint: median tumor weight (est.), dose: 50.0 mg/kg/injection, schedule: Q07DX002 (ip), vehicle: acid diluted with saline) 105 % of control; (endpoint: median tumor weight (est.), dose: 100.0 mg/kg/injection, schedule: Q07DX002 (ip), vehicle: acid diluted with saline) 112 % of control; (endpoint: median tumor weight (est.), dose: 200.0 mg/kg/injection, schedule: Q07DX002 (ip), vehicle: acid diluted with saline) 84 % of control; (endpoint: median tumor weight (est.), dose: 400.0 mg/kg/injection, schedule: Q07DX002 (ip), vehicle: acid diluted with saline) 59 % of control; (endpoint: median tumor weight (est.), dose: 800.0 mg/kg/injection, schedule: Q07DX002 (ip), vehicle: acid diluted with saline) 74 % of control.

`CC(C)NCC(O)COc1ccc(O)c(O)c1` (configuration not stated): the T/C runs as follows: under setting [6], 97 % of control; under setting [2], 94 % of control.

For `CCCCCCCCCCCCCCCCCCOCC(COP(=O)([O-])OCC[N+](C)(C)C)OC` (configuration not stated), the T/C is 122 % of control (endpoint: median tumor weight (est.), dose: 12.5 mg/kg/injection, schedule: Q07DX002 (ip), vehicle: saline); 119 % of control (endpoint: median tumor weight (est.), dose: 25.0 mg/kg/injection, schedule: Q07DX002 (ip), vehicle: saline); 89 % of control under setting [6]; 73 % of control under setting [2].
